Assay results from patent EP0705816B1, “BENZENE DERIVATIVE USEFUL FOR ISCHEMIC DISEASES” (Chugai Seiyaku Kabushiki Kaisha, priority 1993, dated 1995).
Read-outs that look alike come from different tables or passages of the source.

Legend:
[1] = tested on: rabbit LDL; experiment: Inhibitory action on lipid peroxidation in vitro, Method B: CuSO4 oxidation of LDL, TBARS by fluorometry; format: biochemical; details: 1 x 10^-5 M, CuSO4 1 µM, 37°C, 24 hours, 10 µM
Description: A test compound was added to rabbit LDL prepared according to the method of Havel, et al. (Havel RJ, et al., J. Clin. Invest., 34, 1345 (1955)), and then CuSO4 was added to a final concentration of 1 µM. Oxidation of LDL was performed by shaking at 37°C for 24 hours. The generated TBARS was measured by the method of Yagi utilizing fluorometry (Yagi, K., Biochem. Med., 15, 212 (1976)).

[2] = tested on: rabbit LDL; experiment: Inhibitory action on lipid peroxidation in vitro, Method A: oxidation of LDL by soybean lipoxygenase, fluorescence of the LDL fraction; format: biochemical; details: fluorescence intensity of LDL fraction, SLO 40 µg/ml, 37°C, 24 hours
Description: A test compound was added to rabbit LDL prepared according to the method of Havel, et al. (Havel RJ et al., J. Clin. Invest., 34, 1345 (1955)), and then a soybean lipoxygenase type-IS (SLO) was added to a final concentration of 40 µg/ml. Oxydation of LDL was carried out by incubating at 37°C in a CO2 incubator for 24 hours. The oxidized LDL solution was analyzed by gel-permeation chromatography, and the fluorescence intensity of the LDL fraction was measured at an excitation wavelength of 360 nm and an emission wavelength of 430 nm.

[3] = tested on: ventricular myocytes; experiment: Inhibitory action on calcium overload in vitro, Method B: veratridine-treated myocytes; format: cell-based, male Sprague-Dawley rat; details: 50 µg/ml of veratridine, read-out: Concentration at Which Cells Survived Almost Completely
Description: (§1) Incubated ventricular myocytes were prepared from the heart of male Sprague-Dawley rat weighing 300 to 500 g, using an enzyme-perfusion method. […]
The efficacy was evaluated in the same manner as in Method A, except for using 50 µg/ml of veratridine in place of veratrine (100 µg/ml).

[4] = tested on: ventricular myocytes; experiment: Inhibitory action on calcium overload in vitro, Method A: veratrine-treated myocytes; format: cell-based, male Sprague-Dawley rat; design: key: ++: The cells survived almost completely at 10^-7 M.; The cells died almost completely at 10 M^-8 M; details: compound 30 minutes, then 100 µg/ml of veratrine; shape of cells observed five minutes later
Description: as §1

[5] = Rattus norvegicus, Ventricular myocyte

SMILES | % of Control [1] | Percent (%) of Control ([2]; 5 x 10^-7 M, 0.5 µM) | Percent (%) of Control ([2]; 5 x 10^-6 M) | Survival Rate of Cells [4] | further results
CN(CCCN1C(=O)C(OCCO)SC1c1cc(C(C)(C)C)c(O)c(C(C)(C)C)c1)CCOc1ccc2c(c1)OCO2 (centres unmarked) [Compound (55)] | 20.0% |  |  |  | 
CN(CCCN1C(=O)CSC1c1cc(C(C)(C)C)c(O)c(C(C)(C)C)c1)CCOc1ccc2c(c1)OCO2 (single isomer, unassigned; (+)) [Compound (70), (+)-2-(3,5-Di-tert-butyl-4-hydroxyphenyl)-3-[3-[N-methyl-N-[2-(3,4-methylenedioxyphenoxy)ethyl]amino]propyl]-1,3-thiazolidin-4-one] | 21.1% | 15.2% |  |  | Percent (%) of Control ([2]; 5 x 10^-6 M, 5 µM): 5.1%
CC1SC(c2cc(C(C)(C)C)c(O)c(C(C)(C)C)c2)N(CCCN(C)CCOc2ccc3c(c2)OCO3)C1=O (single isomer, unassigned; (-)) [Compound (75), (-)-2,5-Cis-2-(3,5-di-tert-butyl-4-hydroxyphenyl)-3-[3-[N-methyl-N-[2-(3,4-methylenedioxyphenoxy)ethyl]amino]propyl]-5-methyl-1,3-thiazolidin-4-one] |  |  |  |  | minimal effective concentration [3]: 0.32 µM
CN(CCCN1C(=O)C(CCO)SC1c1cc(C(C)(C)C)c(O)c(C(C)(C)C)c1)CCOc1ccc2c(c1)OCO2 (centres unmarked) [Compound (49), 2-(3,5-Di-tert-butyl-4-hydroxyphenyl)-3-[3-[N-methyl-N-[2-(3,4-methylenedioxyphenoxy)ethyl]amino]propyl]-5-(2-hydroxyethyl)-1,3-thiazolidin-4-one] | 15.7% |  |  |  | 
CN(CCCN1C(=S)CSC1c1cc(C(C)(C)C)c(O)c(C(C)(C)C)c1)CCOc1ccc2c(c1)OCO2 (centres unmarked) [Compound (57), 2-(3,5-Di-tert-butyl-4-hydroxyphenyl)-3-[3-[N-methyl-N-[2-(3,4-methylenedioxyphenoxy)ethyl]amino]propyl]-1,3-thiazolidin-4-thione] | 23.0% | 22.8% | 11.3% |  | 
CN(CCCN1C(=O)CSC1c1cc(C(C)(C)C)c(O)c(C(C)(C)C)c1)CCOc1ccc2c(c1)OCO2 (single isomer, unassigned; (-)) [Compound (71), (-)-2-(3,5-Di-tert-butyl-4-hydroxyphenyl)-3-[3-[N-methyl-N-[2-(3,4-methylenedioxyphenoxy)ethyl]amino]propyl]-1,3-thiazolidin-4-one] | 23.8% | 12.7% |  |  | Percent (%) of Control ([2]; 5 x 10^-6 M, 5 µM): 2.8%
CC1SC(c2cc(C(C)(C)C)c(O)c(C(C)(C)C)c2)N(CCCN(C)CCOc2ccc3c(c2)OCO3)C1=O (centres unmarked) [Compound (41), 2-(3,5-Di-tert-butyl-4-hydroxyphenyl)-3-[3-[N-methyl-N-[2-(3,4-methylenedioxyphenoxy)ethyl]amino]propyl]-5-methyl-1,3-thiazolidin-4-one] | 26.3% | 18.3% | 6.2% |  | 
C[C@H]1S[C@H](c2cc(C(C)(C)C)c(O)c(C(C)(C)C)c2)N(CCCN(C)CCOc2ccc3c(c2)OCO3)C1=O (relative stereo) [Compound (72), 2,5-Trans-2-(3,5-di-tert-butyl-4-hydroxyphenyl)-3-[3-[N-methyl-[2-(3,4-methylenedioxyphenoxy)ethyl]amino]propyl]-5-methyl-1,3-thiazolidin-4-one] |  |  |  |  | minimal effective concentration [3, 5]: 0.32 µM
CCOC(=O)CC1SC(c2cc(C(C)(C)C)c(O)c(C(C)(C)C)c2)N(CCCN(C)CCOc2ccc3c(c2)OCO3)C1=O (centres unmarked) [Compound (46), 2-(3,5-Di-tert-butyl-4-hydroxyphenyl)-3-[3-[N-methyl-N-[2-(3,4-methylenedioxyphenoxy)ethyl]amino]propyl]-5-ethoxycarbonylmethyl-1,3-thiazolidin-4-one] | 20.4% |  |  |  | 
CN(CCCN1C(=O)CSC1c1cc(C(C)(C)C)c(O)c(C(C)(C)C)c1)CCOc1ccc2c(c1)OCO2 (centres unmarked) [Compound (26), 2-(3,5-Di-tert-butyl-4-hydroxyphenyl)-3-[3-[N-methyl-N-[2-(3,4-methylenedioxyphenoxy)ethyl]amino]propyl]-1,3-thiazolidin-4-one] |  |  |  | ++ | 
COc1ccc(CCN(C)CCCN2C(=O)CSC2c2cc(C(C)(C)C)c(O)c(C(C)(C)C)c2)cc1OC (centres unmarked) [Compound (20)] | 21.3% | 8.7% | 0.6% | + | 
CN(CCCN1C(=O)C(CC(=O)N(C)C)SC1c1cc(C(C)(C)C)c(O)c(C(C)(C)C)c1)CCOc1ccc2c(c1)OCO2 (centres unmarked) [Compound (51)] | 16.6% |  |  |  | 
CC(C)(C)c1cc(C2SCC(=O)N2CCCN2CCC(Oc3ccc4c(c3)OCO4)CC2)cc(C(C)(C)C)c1O (centres unmarked) [Compound (34)] | 20.5% |  |  |  | minimal effective concentration [3, 5]: 0.32 µM
CN(CCCOc1ccc2c(c1)OCO2)CCCN1C(=O)CSC1c1cc(C(C)(C)C)c(O)c(C(C)(C)C)c1 (centres unmarked) [Compound (17)] | 21.0% | 16.4% | 3.9% |  | minimal effective concentration [3, 5]: 0.32 µM
CN(CCCCCN1C(=O)CSC1c1cc(C(C)(C)C)c(O)c(C(C)(C)C)c1)CCOc1ccc2c(c1)OCO2 (centres unmarked) [Compound (9)] | 26.4% | 13.5% | 5.9% | ++ | 
CC1SC(c2cc(C(C)(C)C)c(O)c(C(C)(C)C)c2)N(CCCN(C)CCOc2ccc3c(c2)OCO3)C1=O (single isomer, unassigned; (+)) [Compound (74), (+)-2,5-Cis-2-(3,5-di-tert-butyl-4-hydroxyphenyl)-3-[3-[N-methyl-N-[2-(3,4-methylenedioxyphenoxy)ethyl]amino]propyl]-5-methyl-1,3-thiazolidin-4-one] |  |  |  |  | minimal effective concentration [3, 5]: 0.32 µM
CCN(CCCN1C(=O)CSC1c1cc(C(C)(C)C)c(O)c(C(C)(C)C)c1)CCOc1ccc2c(c1)OCO2 (centres unmarked) [Compound (12)] | 25.9% | 16.8% | 6.4% | ++ | 
COc1ccc([C@@H]2Sc3ccccc3N(CCN(C)C)C(=O)[C@@H]2OC(C)=O)cc1 [Diltiazem, reference compound] | 96.9% | 109.1% | 110.7% | - | minimal effective concentration ([3]; Rattus norvegicus, Ventricular myocyte, symbol defined by footnote): > 1 µM
CN(CCCCN1C(=O)CSC1c1cc(C(C)(C)C)c(O)c(C(C)(C)C)c1)CCOc1ccc2c(c1)OCO2 (centres unmarked) [Compound (8)] |  |  |  | ++ | 
